Measured values published in patent US12441768B2, “Compositions and methods for treating endometriosis” (EndoMet Biosciences, Inc., priority 2018, dated 2025).
Read-outs that look alike come from different tables or passages of the source. Where a SMILES comes first, the peptide text is derived from it.

Target: T1, β-catenin (Homo sapiens, UniProt P35222)
T1 sequence (P35222 1-781): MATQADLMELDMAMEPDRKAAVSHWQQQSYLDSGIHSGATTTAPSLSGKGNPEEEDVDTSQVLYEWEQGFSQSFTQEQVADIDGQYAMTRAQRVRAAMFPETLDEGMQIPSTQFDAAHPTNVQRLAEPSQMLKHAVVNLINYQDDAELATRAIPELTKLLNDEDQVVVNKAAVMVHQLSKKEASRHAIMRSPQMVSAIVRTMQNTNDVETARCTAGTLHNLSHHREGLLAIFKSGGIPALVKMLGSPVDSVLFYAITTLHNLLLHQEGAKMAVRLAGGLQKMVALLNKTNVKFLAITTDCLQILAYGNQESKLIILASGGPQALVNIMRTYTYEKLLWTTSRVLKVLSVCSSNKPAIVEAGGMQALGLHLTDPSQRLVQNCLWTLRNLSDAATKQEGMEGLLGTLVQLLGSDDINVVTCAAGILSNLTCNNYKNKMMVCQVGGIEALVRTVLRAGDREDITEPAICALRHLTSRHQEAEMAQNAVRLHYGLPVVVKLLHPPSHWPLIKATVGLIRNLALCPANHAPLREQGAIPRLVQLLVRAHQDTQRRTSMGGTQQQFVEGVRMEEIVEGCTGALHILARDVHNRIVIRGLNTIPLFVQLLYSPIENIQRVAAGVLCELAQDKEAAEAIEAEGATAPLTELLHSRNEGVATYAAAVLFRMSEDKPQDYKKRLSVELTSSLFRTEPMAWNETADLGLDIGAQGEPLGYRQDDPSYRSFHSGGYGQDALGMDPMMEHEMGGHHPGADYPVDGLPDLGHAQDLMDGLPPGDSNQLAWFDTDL
Assay: KD50 measurement using competitive fluorescence polarization (FP) with labelled TCF4
Format: binding
Settings: fluorescence polarization, β-catenin
Method in brief: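 5 nM labelled TCF4 was combined with 100 nM β-catenin at room temperature, then inhibitor was titrated in serial dilutions from 10 nM to 30 uM. Polarization was read at excitation 470 nm, emission 520 nm; displacement lowers the signal. Three independent experiments.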

| Structure (SMILES) | β-Cat FP Hill slope | Kd (read-out: β-Cat FP KD) [nM] | Kd (β-Cat FP KD) [nM] |
| --- | --- | --- | --- |
| CC[C@H](C)[C@@H]1NC(=O)[C@H](CC(C)C)NC(=O)[C@H](Cc2ccc(O)cc2)NC(=O)[C@H](Cc2c[nH]c3ccccc23)NC(=O)[C@H](CCSC)NC(=O)[C@H](CCCNC(=N)N)NC(=O)[C@H](CO)NC(=O)[C@@H](N)CCCNC(=O)[C@H](Cc2c[nH]c3ccccc23)NC(=O)[C@H](Cc2ccccc2)NC(=O)[C@H](CO)NC1=O [compound 277] (HELM PEPTIDE1{[Orn].S.R.M.W.Y.L.I.S.F.W}$PEPTIDE1,PEPTIDE1,1:R3-11:R2$$$V2.0) | 0.7 | > 30000 | – |
| CC[C@H](C)[C@@H]1NC(=O)[C@H](CC(C)C)NC(=O)[C@H](Cc2ccccc2)NC(=O)[C@H](Cc2c[nH]c3ccccc23)NC(=O)[C@@H](N)CCCCNC(=O)CCCCNC(=O)C[C@@H](C(=O)O)NC(=O)[C@H](Cc2c[nH]c3ccccc23)NC(=O)[C@H](C)NC(=O)[C@H](CS)NC1=O [compound 248] (HELM PEPTIDE1{K.W.F.L.I.C.A.W.[O=C(O)[C@H](CC(=O)[*:2])N[*:1]].[O=C(CCCCN[*:1])[*:2]]}$PEPTIDE1,PEPTIDE1,1:R3-10:R2$$$V2.0) | – | > 30000 | – |
| CC[C@H](C)[C@@H]1NC(=O)[C@@H](NC(=O)[C@H](CCC(N)=O)NC(=O)[C@H](C)N(C)C(=O)[C@@H](N)Cc2c[nH]c3ccccc23)CCCCNC(=O)CC[C@@H](C(=O)N[C@@H](Cc2c[nH]cn2)C(=O)N[C@H](C(=O)N[C@@H](CO)C(=O)N[C@@H](CCCNC(=N)N)C(=O)N[C@H](C(=O)N[C@@H](Cc2c[nH]c3ccccc23)C(=O)NCC(N)=O)C(C)C)C2CCCCC2)NC(=O)[C@H](CC(=O)O)NC(=O)[C@H](CC(C)C)NC1=O [compound 415] (HELM PEPTIDE1{W.[meA].Q.K.I.L.D.E.H.[O=C([C@@H](N[*:1])C1CCCCC1)[*:2]].S.R.V.W.G.[am]}$PEPTIDE1,PEPTIDE1,4:R3-8:R3$$$V2.0) | 0.7 | < 400 | – |
| CCCCCCCCCCCC(=O)N[C@@H](Cc1c[nH]c2ccccc12)C(=O)N(C)[C@@H](C)C(=O)N[C@@H](CCC(N)=O)C(=O)N[C@H]1CCCCNC(=O)C[C@@H](C(=O)N[C@@H](Cc2c[nH]cn2)C(=O)N[C@H](C(=O)N[C@@H](CCC(N)=O)C(=O)N[C@@H](C)C(=O)N[C@H](C(N)=O)C(C)C)C2CCCCC2)NC(=O)[C@H](CC(N)=O)NC(=O)[C@H](CC(C)C)NC(=O)[C@H]([C@@H](C)CC)NC1=O [compound 453] (HELM PEPTIDE1{[CCCCCCCCCCCC(=O)[*:2]].W.[meA].Q.K.I.L.N.D.H.[O=C([C@@H](N[*:1])C1CCCCC1)[*:2]].Q.A.V.[am]}$PEPTIDE1,PEPTIDE1,5:R3-9:R3$$$V2.0) | – | – | 1000 to 10000 |
| CC[C@H](C)[C@H](NC(=O)[C@@H](N)CC(C)C)C(=O)N[C@@H](CO)C(=O)N[C@@H](Cc1ccccc1)C(=O)N[C@@H](Cc1c[nH]c2ccccc12)C(=O)NCC(=O)O [compound 237] (H-LISFWG-OH) | 0.72 | > 30000 | – |
| CC[C@@H]1NC(=O)[C@H]([C@@H](C)CC)NC(=O)[C@H](CC(C)C)NC(=O)[C@H](Cc2ccccc2)NC(=O)[C@H](Cc2c[nH]c3ccccc23)NC(=O)[C@@H](NC(C)=O)CCCCNC(=O)C[C@@H](C(=O)O)NC(=O)[C@H](Cc2c[nH]c3ccccc23)NC(=O)[C@H](C)NC1=O [compound 243] (HELM PEPTIDE1{[ac].K.W.F.L.I.[Abu].A.W.D}$PEPTIDE1,PEPTIDE1,2:R3-10:R3$$$V2.0) | 0.7 | 10000 to 30000 | – |

Second part, led by results:

| β-Cat FP Hill slope | Kd (read-out: β-Cat FP KD) [nM] | Structure (SMILES) | Kd (β-Cat FP KD) [nM] |
| --- | --- | --- | --- |
| – | < 400 | CCCCCCCCC(=O)N[C@@H](Cc1c[nH]c2ccccc12)C(=O)N(C)[C@@H](C)C(=O)N[C@@H](CCC(N)=O)C(=O)N[C@H]1CCCCNC(=O)C[C@@H](C(=O)N[C@@H](Cc2c[nH]cn2)C(=O)N[C@H](C(=O)N[C@@H](CCC(N)=O)C(=O)N[C@@H](CCCNC(=N)N)C(=O)N[C@H](C(=O)N[C@@H](Cc2c[nH]c3ccccc23)C(=O)NCC(N)=O)C(C)C)C2CCCCC2)NC(=O)[C@H](CC(=O)O)NC(=O)[C@H](CC(C)C)NC(=O)[C@H]([C@@H](C)CC)NC1=O [compound 431] (HELM PEPTIDE1{[CCCCCCCCC(=O)[*:2]].W.[meA].Q.K.I.L.D.D.H.[O=C([C@@H](N[*:1])C1CCCCC1)[*:2]].Q.R.V.W.G.[am]}$PEPTIDE1,PEPTIDE1,5:R3-9:R3$$$V2.0) | – |
| – | < 400 | CCCCCCCCCCCC(=O)N[C@@H](Cc1c[nH]c2ccccc12)C(=O)N(C)[C@@H](C)C(=O)N[C@@H](CCC(N)=O)C(=O)N[C@@H](CO)C(=O)N[C@H](C(=O)N[C@@H](CC(C)C)C(=O)N[C@@H](CC(=O)O)C(=O)N[C@H]1CCC(=O)NCCCC[C@@H](C(=O)N[C@H](C(=O)N[C@@H](Cc2c[nH]c3ccccc23)C(=O)NCC(N)=O)C(C)C)NC(=O)[C@H](CCC(N)=O)NC(=O)[C@H](C(C)C)NC(=O)[C@H](Cc2c[nH]cn2)NC1=O)[C@@H](C)CC [compound 439] (HELM PEPTIDE1{[CCCCCCCCCCCC(=O)[*:2]].W.[meA].Q.S.I.L.D.E.H.V.Q.K.V.W.G.[am]}$PEPTIDE1,PEPTIDE1,9:R3-13:R3$$$V2.0) | – |
| 0.7 | < 400 | CC[C@H](C)[C@@H]1NC(=O)[C@@H](NC(=O)[C@H](CCC(N)=O)NC(=O)[C@H](C)N(C)C(=O)[C@H](Cc2c[nH]c3ccccc23)NC(C)=O)CCCCNC(=O)CC[C@@H](C(=O)N[C@@H](Cc2c[nH]cn2)C(=O)N[C@H](C(=O)N[C@@H](CCC(N)=O)C(=O)N[C@@H](CCCNC(=N)N)C(=O)N[C@H](C(=O)N[C@@H](Cc2c[nH]c3ccccc23)C(N)=O)C(C)C)C2CCCCC2)NC(=O)[C@H](CC(=O)O)NC(=O)[C@H](CC(C)C)NC1=O [compound 446] (HELM PEPTIDE1{[ac].W.[meA].Q.K.I.L.D.E.H.[O=C([C@@H](N[*:1])C1CCCCC1)[*:2]].Q.R.V.W.[am]}$PEPTIDE1,PEPTIDE1,5:R3-9:R3$$$V2.0) | – |
| 0.91 | < 400 | CC[C@H](C)[C@@H]1NC(=O)[C@@H](NC(=O)[C@H](CCC(N)=O)NC(=O)[C@H](C)N(C)C(=O)[C@H](Cc2c[nH]c3ccccc23)NC(C)=O)CCC(=O)NCCCC[C@@H](C(=O)N[C@@H](Cc2c[nH]cn2)C(=O)N[C@H](C(=O)N[C@@H](CCC(N)=O)C(=O)N[C@@H](CCCNC(=N)N)C(=O)N[C@H](C(=O)N[C@@H](Cc2c[nH]c3ccccc23)C(=O)NCC(N)=O)C(C)C)C2CCCCC2)NC(=O)[C@H](CC(=O)O)NC(=O)[C@H](CC(C)C)NC1=O [compound 426] (HELM PEPTIDE1{[ac].W.[meA].Q.E.I.L.D.K.H.[O=C([C@@H](N[*:1])C1CCCCC1)[*:2]].Q.R.V.W.G.[am]}$PEPTIDE1,PEPTIDE1,5:R3-9:R3$$$V2.0) | – |
| 0.7 | < 400 | CC[C@H](C)[C@@H]1NC(=O)[C@@H](NC(=O)[C@H](CCC(N)=O)NC(=O)[C@H](C)N(C)C(=O)[C@H](Cc2c[nH]c3ccccc23)NC(C)=O)CCCNC(=O)CC[C@@H](C(=O)N[C@@H](Cc2c[nH]cn2)C(=O)N[C@H](C(=O)N[C@@H](CCC(N)=O)C(=O)N[C@@H](CCCNC(=N)N)C(=O)N[C@H](C(=O)N[C@@H](Cc2c[nH]c3ccccc23)C(=O)NCC(N)=O)C(C)C)C2CCCCC2)NC(=O)[C@H](CC(=O)O)NC(=O)[C@H](CC(C)C)NC1=O [compound 424] (HELM PEPTIDE1{[ac].W.[meA].Q.[Orn].I.L.D.E.H.[O=C([C@@H](N[*:1])C1CCCCC1)[*:2]].Q.R.V.W.G.[am]}$PEPTIDE1,PEPTIDE1,5:R3-9:R3$$$V2.0) | – |
